Measured values taken from US9845330B2, “6-nitro-2,3-dihydroimidazo[2,1-b]oxazoles and a process for the preparation thereof” (priority 2013, dated 2017).
Values after ≈ are worked out from the molar mass of the structure shown.

Columns and labels:
[1] = system: M. tuberculosis XDR (resistant to isoniazid, rifampicin, amikacin and moxifloxacin); assay: microbe, parasite or virus in culture; type: cell-based; details: Mycobacterium tuberculosis, 504 h, read-out: MIC M. tb XDR
[2] = system: M. tuberculosis MDR (resistant to isoniazid and rifampicin); assay: microbe, parasite or virus in culture; type: cell-based; details: Mycobacterium tuberculosis, 504 h, read-out: MIC M. tb MDR

| SMILES | MIC [1] [µg/mL] | MIC [2] [µg/mL] |
| --- | --- | --- |
| C[C@]1(COc2ccc(-n3cc(-c4ccccc4)nn3)cc2)Cn2cc([N+](=O)[O-])nc2O1 [IA1] | 4 (≈ 9.56 µM) | 4 (≈ 9.56 µM) |
| CCc1ccc(-c2cn(-c3ccc(OC[C@@]4(C)Cn5cc([N+](=O)[O-])nc5O4)cc3)nn2)cc1 [IA2, (R)-2-{4-[4-(4-ethylphenyl)-1H-1,2,3-triazol-1-yl]phenoxymethyl}-2,3-dihydro-2-methyl-6-nitroimidazo[2,1-b]oxazole] | 4 (≈ 8.96 µM) | 4 (≈ 8.96 µM) |
| C[C@]1(COc2ccc(-n3cc(-c4ccc(F)cc4)nn3)cc2)Cn2cc([N+](=O)[O-])nc2O1 [IA3, (R)-2-{4-[4-(4-fluorophenyl)-1H-1,2,3-triazol-1-yl]phenoxymethyl}-2,3-dihydro-2-methyl-6-nitroimidazo[2,1-b]oxazole] | 0.25 (≈ 0.573 µM) | 0.25 (≈ 0.573 µM) |
| C[C@]1(COc2ccc(-n3cc(-c4ccccc4F)nn3)cc2)Cn2cc([N+](=O)[O-])nc2O1 [IA4, (R)-2-{4-[4-(2-fluorophenyl)-1H-1,2,3-triazol-1-yl]phenoxymethyl}-2,3-dihydro-2-methyl-6-nitroimidazo[2,1-b]oxazole] | 2 (≈ 4.58 µM) | 2 (≈ 4.58 µM) |
| C[C@]1(COc2ccc(-n3cc(-c4ccc(OC(F)(F)F)cc4)nn3)cc2)Cn2cc([N+](=O)[O-])nc2O1 [IA5, (R)-2-{4-[4-(4-trifluoromethoxyphenyl)-1H-1,2,3-triazol-1-yl]phenoxymethyl}-2,3-dihydro-2-methyl-6-nitroimidazo[2,1-b]oxazole] | 0.5 (≈ 0.995 µM) | 0.5 (≈ 0.995 µM) |
| C[C@]1(COc2ccc(-n3cc(-c4ccccc4C(F)(F)F)nn3)cc2)Cn2cc([N+](=O)[O-])nc2O1 [IA6, (R)-2-{4-[4-(2-trifluoromethylphenyl)-1H-1,2,3-triazol-1-yl]phenoxymethyl}-2,3-dihydro-2-methyl-6-nitroimidazo[2,1-b]oxazole] | 1 (≈ 2.06 µM) | 1 (≈ 2.06 µM) |
| C[C@]1(COc2ccc(-n3cc(-c4ccc(F)cc4F)nn3)cc2)Cn2cc([N+](=O)[O-])nc2O1 [IA7, (R)-2-{4-[4-(2,4-difluorophenyl)-1H-1,2,3-triazol-1-yl]phenoxymethyl}-2,3-dihydro-2-methyl-6-nitroimidazo[2,1-b]oxazole] | 2 (≈ 4.4 µM) | 2 (≈ 4.4 µM) |
| Cc1ccc(-c2cn(-c3ccc(OC[C@@]4(C)Cn5cc([N+](=O)[O-])nc5O4)cc3)nn2)cc1 [IA8, (R)-2-{4-[4-(4-methylphenyl)-1H-1,2,3-triazol-1-yl]phenoxymethyl}-2,3-dihydro-2-methyl-6-nitroimidazo[2,1-b]oxazole] | 1 (≈ 2.31 µM) | 1 (≈ 2.31 µM) |
| CC(C)c1ccc(-c2cn(-c3ccc(OC[C@@]4(C)Cn5cc([N+](=O)[O-])nc5O4)cc3)nn2)cc1 [IA9, (R)-2-{4-[4-(4-isopropylphenyl)-1H-1,2,3-triazol-1-yl]phenoxymethyl}-2,3-dihydro-2-methyl-6-nitroimidazo[2,1-b]oxazole] | 1 (≈ 2.17 µM) | 1 (≈ 2.17 µM) |
| C[C@]1(COc2ccc(-n3cc(-c4cccc(F)c4)nn3)cc2)Cn2cc([N+](=O)[O-])nc2O1 [IA10, (R)-2-{4-[4-(3-fluorophenyl)-1H-1,2,3-triazol-1-yl]phenoxymethyl}-2,3-dihydro-2-methyl-6-nitroimidazo[2,1-b]oxazole] | 2 (≈ 4.58 µM) | 2 (≈ 4.58 µM) |
| COc1ccc(-c2cn(-c3ccc(OC[C@@]4(C)Cn5cc([N+](=O)[O-])nc5O4)cc3)nn2)cc1 [IA11, (R)-2-{4-[4-(4-methoxyphenyl)-1H-1,2,3-triazol-1-yl]phenoxymethyl}-2,3-dihydro-2-methyl-6-nitroimidazo[2,1-b]oxazole] | 0.25 (≈ 0.557 µM) | 0.25 (≈ 0.557 µM) |
| C[C@]1(COc2ccc(-n3cc(-c4cccc(OC(F)(F)F)c4)nn3)cc2)Cn2cc([N+](=O)[O-])nc2O1 [IA12, (R)-2-{4-[4-(3-trifluoromethoxyphenyl)-1H-1,2,3-triazol-1-yl]phenoxymethyl}-2,3-dihydro-2-methyl-6-nitroimidazo[2,1-b]oxazole] | 0.5 (≈ 0.995 µM) | 0.5 (≈ 0.995 µM) |
| C[C@]1(COc2ccc(-n3cc(-c4cccc(C(F)(F)F)c4)nn3)cc2)Cn2cc([N+](=O)[O-])nc2O1 [IA13, (R)-2-{4-[4-(3-trifluoromethylphenyl)-1H-1,2,3-triazol-1-yl]phenoxymethyl}-2,3-dihydro-2-methyl-6-nitroimidazo[2,1-b]oxazole] | 2 (≈ 4.11 µM) | 2 (≈ 4.11 µM) |
| C[C@]1(COc2ccc(-n3cc(-c4ccccn4)nn3)cc2)Cn2cc([N+](=O)[O-])nc2O1 [IA14] | 2 (≈ 4.77 µM) | 2 (≈ 4.77 µM) |
| CCCCCc1cn(-c2ccc(OC[C@@]3(C)Cn4cc([N+](=O)[O-])nc4O3)cc2)nn1 [IA15, (R)-2-{4-[4-pentyl-1H-1,2,3-triazol-1-yl]phenoxymethyl}-2,3-dihydro-2-methyl-6-nitroimidazo[2,1-b]oxazole] | 32 (≈ 77.6 µM) | 32 (≈ 77.6 µM) |
| CCCCCCCc1cn(-c2ccc(OC[C@@]3(C)Cn4cc([N+](=O)[O-])nc4O3)cc2)nn1 [IA16, (R)-2-{4-[4-heptyl-1H-1,2,3-triazol-1-yl]phenoxymethyl}-2,3-dihydro-2-methyl-6-nitroimidazo[2,1-b]oxazole] | 4 (≈ 9.08 µM) | 4 (≈ 9.08 µM) |
| C[C@]1(COc2cccc(-n3cc(-c4ccc(F)cc4)nn3)c2)Cn2cc([N+](=O)[O-])nc2O1 [IA17, (R)-2-{3-[4-(4-fluorophenyl)-1H-1,2,3-triazol-1-yl]phenoxymethyl}-2,3-dihydro-2-methyl-6-nitroimidazo[2,1-b]oxazole] | 2 (≈ 4.58 µM) | 2 (≈ 4.58 µM) |
| C[C@]1(COc2cccc(-n3cc(-c4ccc(C(F)(F)F)cc4)nn3)c2)Cn2cc([N+](=O)[O-])nc2O1 [IA18, (R)-2-{3-[4-(4-trifluoromethylphenyl)-1H-1,2,3-triazol-1-yl]phenoxymethyl}-2,3-dihydro-2-methyl-6-nitroimidazo[2,1-b]oxazole] | 2 (≈ 4.11 µM) | 2 (≈ 4.11 µM) |
| C[C@]1(COc2cccc(-n3cc(-c4ccc(OC(F)(F)F)cc4)nn3)c2)Cn2cc([N+](=O)[O-])nc2O1 [IA19, (R)-2-{3-[4-(4-trifluoromethoxyphenyl)-1H-1,2,3-triazol-1-yl]phenoxymethyl}-2,3-dihydro-2-methyl-6-nitroimidazo[2,1-b]oxazole] | 4 (≈ 7.96 µM) | 4 (≈ 7.96 µM) |

| SMILES | MIC [1] [µg/mL] | MIC [2] [µg/mL] |
| --- | --- | --- |
| C[C@]1(COc2cccc(-n3cc(-c4ccc(F)cc4F)nn3)c2)Cn2cc([N+](=O)[O-])nc2O1 [IA20, (R)-2-{3-[4-(2,4-difluorophenyl)-1H-1,2,3-triazol-1-yl]phenoxymethyl}-2,3-dihydro-2-methyl-6-nitroimidazo[2,1-b]oxazole] | 4 (≈ 8.8 µM) | 4 (≈ 8.8 µM) |
| C[C@]1(COc2ccccc2-n2cc(-c3ccc(F)cc3)nn2)Cn2cc([N+](=O)[O-])nc2O1 [IA21, (R)-2-{2-[4-(4-fluorophenyl)-1H-1,2,3-triazol-1-yl]phenoxymethyl}-2,3-dihydro-2-methyl-6-nitroimidazo[2,1-b]oxazole] | 1 (≈ 2.29 µM) | 1 (≈ 2.29 µM) |
| C[C@]1(COc2ccccc2-n2cc(-c3ccc(C(F)(F)F)cc3)nn2)Cn2cc([N+](=O)[O-])nc2O1 [IA22, (R)-2-{2-[4-(4-trifluoromethylphenyl)-1H-1,2,3-triazol-1-yl]phenoxymethyl}-2,3-dihydro-2-methyl-6-nitroimidazo[2,1-b]oxazole] | 4 (≈ 8.22 µM) | 4 (≈ 8.22 µM) |
| C[C@]1(COc2ccccc2-n2cc(-c3ccc(OC(F)(F)F)cc3)nn2)Cn2cc([N+](=O)[O-])nc2O1 [IA23, (R)-2-{2-[4-(4-trifluoromethoxyphenyl)-1H-1,2,3-triazol-1-yl]phenoxymethyl}-2,3-dihydro-2-methyl-6-nitroimidazo[2,1-b]oxazole] | 4 (≈ 7.96 µM) | 4 (≈ 7.96 µM) |
| C[C@]1(COc2ccccc2-n2cc(-c3ccc(F)cc3F)nn2)Cn2cc([N+](=O)[O-])nc2O1 [IA24, (R)-2-{2-[4-(2,4-difluorophenyl)-1H-1,2,3-triazol-1-yl]phenoxymethyl}-2,3-dihydro-2-methyl-6-nitroimidazo[2,1-b]oxazole] | 1 (≈ 2.2 µM) | 1 (≈ 2.2 µM) |
| C[C@]1(COc2ccc(-n3cc(COc4ccc(OC(F)(F)F)cc4)nn3)cc2)Cn2cc([N+](=O)[O-])nc2O1 [IA25] | 0.12 (≈ 0.225 µM) | 0.12 (≈ 0.225 µM) |
| C[C@]1(COc2ccc(-n3cc(COc4ccc(F)cc4)nn3)cc2)Cn2cc([N+](=O)[O-])nc2O1 [IA26] | 0.5 (≈ 1.07 µM) | 0.5 (≈ 1.07 µM) |
| C[C@]1(COc2ccc(-n3cc(COc4ccc(C(F)(F)F)cc4)nn3)cc2)Cn2cc([N+](=O)[O-])nc2O1 [IA27] | 0.25 (≈ 0.484 µM) | 0.25 (≈ 0.484 µM) |
| C[C@]1(COc2ccc(-n3cc(COc4ccccc4F)nn3)cc2)Cn2cc([N+](=O)[O-])nc2O1 [IA28] | 0.12 (≈ 0.257 µM) | 0.12 (≈ 0.257 µM) |
| Cc1ccc(OCc2cn(-c3ccc(OC[C@@]4(C)Cn5cc([N+](=O)[O-])nc5O4)cc3)nn2)cc1 [IA29] | 32 (≈ 69.2 µM) | 32 (≈ 69.2 µM) |
| CC(C)c1ccc(OCc2cn(-c3ccc(OC[C@@]4(C)Cn5cc([N+](=O)[O-])nc5O4)cc3)nn2)cc1 [IA30] | 32 (≈ 65.2 µM) | 32 (≈ 65.2 µM) |
| CCc1ccc(OCc2cn(-c3ccc(OC[C@@]4(C)Cn5cc([N+](=O)[O-])nc5O4)cc3)nn2)cc1 [IA31] | 0.25 (≈ 0.525 µM) | 0.25 (≈ 0.525 µM) |
| CCC(C)c1ccc(OCc2cn(-c3ccc(OC[C@@]4(C)Cn5cc([N+](=O)[O-])nc5O4)cc3)nn2)cc1 (some centres unmarked) [IA32] | 0.12 (≈ 0.238 µM) | 0.12 (≈ 0.238 µM) |
| C[C@]1(COc2cccc(-n3cc(COc4ccc(OC(F)(F)F)cc4)nn3)c2)Cn2cc([N+](=O)[O-])nc2O1 [IA33] | 0.12 (≈ 0.225 µM) | 0.12 (≈ 0.225 µM) |
| C[C@]1(COc2cccc(-n3cc(COc4ccc(F)cc4)nn3)c2)Cn2cc([N+](=O)[O-])nc2O1 [IA34] | 0.12 (≈ 0.257 µM) | 0.12 (≈ 0.257 µM) |
| C[C@]1(COc2cccc(-n3cc(COc4ccc(C(F)(F)F)cc4)nn3)c2)Cn2cc([N+](=O)[O-])nc2O1 [IA35] | 2 (≈ 3.87 µM) | 2 (≈ 3.87 µM) |
| C[C@]1(COc2cccc(-n3cc(COc4ccccc4F)nn3)c2)Cn2cc([N+](=O)[O-])nc2O1 [IA36] | 2 (≈ 4.29 µM) | 2 (≈ 4.29 µM) |
| Cc1ccc(OCc2cn(-c3cccc(OC[C@@]4(C)Cn5cc([N+](=O)[O-])nc5O4)c3)nn2)cc1 [IA37] | 4 (≈ 8.65 µM) | 4 (≈ 8.65 µM) |
